Data: US10624875B2, “Methods and compositions for treating schizophrenia” (The Johns Hopkins University, priority 2012, dated 2020)

How the values were obtained:
[1] = tested on: aMCI subjects; assay: Verbal Paired Associates Test - Recognition; assay type: in vivo, human; conditions: 125 mg twice a day for two weeks
Experimental: (§1) A within-subjects trial of 8 weeks duration, involving 17 amnestic MCI (aMCI) subjects and 17 age-matched controls with a low dose treatment of levetiracetam is conducted. During the course of the study, each aMCI subject receives both drug and placebo treatments separately in two periods of two weeks each, with the order of treatments among different aMCI subjects counterbalanced (see FIG. 7). Age-matched control subjects treated with placebo serve as a further control. Cognitive testing and fMRI imaging data are obtained from the subjects after each two week period of drug/placebo treatment.
(§2) All participants undergo neuropsychological evaluation at the time of assessment for treatment efficacy (Visits 1 and 2), as well as at the Baseline Visit. […]
(§3) As described above, the drug treatment period is the two weeks preceding Visit 1 or 2 (with the two week period preceding the other Visit being the placebo phase). For the subjects receiving the drug treatment, half a scored 250 mg tablet of levetiracetam is used to achieve a dose of […], which is approximately 3.6 mg/kg/day (assuming an average adult human weight of 70 kg).

[2] = tested on: Age-Impaired (AI) Long-Evans rats; assay: Morris Water Maze (MWM) retention trial, spatial memory; assay type: in vivo, rat; conditions: retention trial 24 hours after two training days
Experimental: The MWM apparatus consists of a large, circular pool (diameter 1.83 m; height, 0.58 m) filled with water (27° C.) that is made opaque through the addition of non-toxic pigment or some other substance. In the typical “hidden platform” version of the test, rats are trained to find a camouflaged white escape platform (height, 34.5 cm) that is positioned in the center of one quadrant of the maze about 1.0 cm below the water surface. This platform can be retracted to the bottom of the tank or raised to its normal position from outside the maze during behavioral testing. The location of the platform remains constant from trial to trial. Because there are no local cues that mark the position of the platform, the rat's ability to locate it efficiently from any starting position at the perimeter of the pool depends on using information surrounding the maze. The maze is surrounded by black curtains to which white patterns are affixed to provide a configuration of spatial cues. A second platform (height 37.5 cm), with its surface painted black is elevated 2 cm above the water surface during cue training to control for factors unrelated to cognition. The behavior of a rat in the pool is recorded by a camera that is suspended 2.5 m above the center of the pool. […] At the completion of the protocol using the hidden platform, rats are assessed for cue learning using the visible platform. […]

[3] = tested on: aMCI subjects; assay: Verbal Paired Associates Test - Delayed Recall; assay type: in vivo, human; conditions: 125 mg twice a day for two weeks
Experimental: as §1, §2, §3

CC[C@@H](C(N)=O)N1CCCC1=O [levetiracetam, (2S)-2-(2-oxopyrrolidin-1-yl) butanamide]
performance in Verbal Paired Associates Test - Recognition [1]: fail to rescue performance
time spent in the target quadrant versus vehicle-treated controls ([2]; 5 mg/kg/day i.p.): did not significantly improve
time spent in the target annulus ([2]; 10 mg/kg/day i.p.): effectiveness of the 10 mg/kg/day levetiracetam treatment was also seen
performance in Verbal Paired Associates Test - Delayed Recall [3]: fail to rescue performance
